Assay results reported in publication PMC12304293, “Combatting virulent gut bacteria by inhibiting the biosynthesis of a two-component lanthipeptide toxin” (Nature Communications, 2025).
Several values for one entry are separate records, joined by “and”; a condition that tells them apart may be missing. Equal values may be shown once. Non-standard residues stand in square brackets, D forms with d. Residues, ends and D or L forms follow the SMILES beside them. *: point of attachment. boroGlu = O=C(O)CC[C@H](N*)B(O)O; Gly(cPr) = N[C@H](C(=O)O)C1CC1

What was measured:
[1] = system: cylLL, cylLS, and cylA transcripts in C+ E. faecalis ATCC 29212; assay: RT-qPCR of cylLL, cylLS and cylA transcripts; format: cell-based, Enterococcus faecalis
Description: Since the cytolysin BGC is often expressed in two transcripts because of the presence of a weak intergenic terminator between cylLL and cylM, primers and amplicons were selected for cylLL, cylLS and cylA[67].
The amounts of cylLL, cylLS, and cylA transcripts relative to the amount of 16S rRNA were determined by RT-qPCR. Amplicons and primers used to quantify cylLL, cylLS and 16S rRNA were identical to those previously reported. All primers are listed in Supplementary Table 3. Overnight cultures of E. faecalis ATCC 29212 were prepared as described in ‘Detection of CylLS” from extracts of E. faecalis’. Upon inoculation, samples were treated with 100 μM of 9 or vehicle. The samples were incubated at 37 °C for 20 h, then cells were collected by centrifugation (5000 g for 10 min). The supernatant was removed and the cells pellets were re-suspended in Lysis buffer (10 mM TrisHCl, 3 mg/mL lysozyme, pH = 7.8) at a concentration of 160 μL of Lysis buffer for 1 mL of overnight culture. The cells were incubated in Lysis buffer at room temperature for 15 min then RNA was extracted using a Monarch® Total RNA Miniprep Kit. Isolated RNA was immediately converted to cDNA using an iScript™ cDNA Synthesis Kit. cDNA was amplified using a SsoAdvanced Universal SYBR Green Supermix and a StepOnePlus Real-Time PCR System (Applied Biosystems). The expression level of each gene in each sample was determined by taking the difference between the CT of the amplification curve for the gene of interest (cylLL, cylLS or cylA) and the CT of the amplification curve for 16S rRNA, yielding ΔCT. ΔΔCT was determined by taking the difference between the ΔCT of the inhibitor treated sample and the ΔCT of the inhibitor-free control for each gene. Fold change in gene expression was calculature using Eq. (2)[76]. Four biological replicates were performed.2 Foldchangeingeneexpression=2^ΔΔCT

[2] = format: in vitro ADME; conditions: 100 µM, 25% human serum, 3 h, 37 °C
Description: Similiarly, 9 was diluted to 100 µM in BHI that was inoculated with E. faecalis ATCC 29212 before incubating at 37 °C for 20 h. The overnight culture was flash frozen and lyophilized. The lyophilized samples were extracted with a volume of 90% methanol/10% water that was equal to the volume of the sample prior to lyophilization. The extract was assumed to have a concentration of 100 µM. […]
Human Serum + 9 Human Serum
Log(Concentration (µM)) Log(Concentration(µM))
Supplementary Figure 19. The stability of inhibitor 9 in the pres ence of human serum or C+ E. faecalis. A ) C y l A i nhibition activity of an extract of human s erum treated with 9 (100 μM) for 3 h at 37 ̊C. The resulting solution was used to determine the remaining activity of the inhibitor in a […]
CylA activity assay. […] This experiment was perform ed on three different samples of inhibitor (n = 3). B) CylA inhibition activity of an extract of E. faecalis that was treated with 9 (100 μM) for 20 h at 37 ̊C (+9 +E. faecalis). The resulting solution was used to determine the remaining activity of the inhibitor in a CylA activity assay. An IC50 equal to 36 ± 3 nM was determin ed. Thes e values are higher than the IC50 for a fresh batch of […]
(also on this page, place not known: determined. inhibition CylA These IC 50 presence serum This performed A) Non-linear fitting v i/vo IC 50. […]

His6-CylA-27-412 = molecular target: T1, His6-CylA-27-412 (Enterococcus faecalis, UniProt A0A2P6AWB8); assay: Co-operative pore formation assay (pyranine liposomes) measuring CylA-catalyzed cytolysin maturation; format: biochemical
T1 sequence (A0A2P6AWB8 27-412): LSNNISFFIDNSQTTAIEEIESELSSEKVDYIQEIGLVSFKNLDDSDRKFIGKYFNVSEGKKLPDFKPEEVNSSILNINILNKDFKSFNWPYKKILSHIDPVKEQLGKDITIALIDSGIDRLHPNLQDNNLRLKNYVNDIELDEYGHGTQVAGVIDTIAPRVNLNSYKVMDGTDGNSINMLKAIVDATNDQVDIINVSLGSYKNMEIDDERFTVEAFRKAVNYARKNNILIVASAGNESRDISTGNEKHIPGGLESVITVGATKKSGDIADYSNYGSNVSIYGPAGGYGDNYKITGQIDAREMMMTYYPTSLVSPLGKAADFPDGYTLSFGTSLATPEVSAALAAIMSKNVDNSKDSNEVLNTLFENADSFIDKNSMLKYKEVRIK
From the text: Cytolysin causes hemolysis and lyses a variety of eukaryotic cells[36],[37]. Additionally, CylA aggregates and is thought to associate primarily with the membrane of the producing cell[52],[53]. To mimic the maturation of cytolysin in vitro, an enzyme assay was designed that linked toxin production to the lysis of fluorescently labeled liposomes. […] In this way, pyranine fluorescence was correlated to toxin activation allowing for the determination of EC50 values (Fig. 4B, C).
Fig. 4 In vitro pore formation assay for determining inhibitor effectiveness. A A schematic of the assay showing how pore formation is used as an indicator of toxin maturation. […] Pore formation dissipates a pH gradient between the interior of the liposome and the surrounding buffer increasing pyranine fluorescence. […] The data points from two replicates are shown (n = 2). Source data are provided as a Source Data file.
Pyranine encapsulated liposomes were prepared as described elsewhere. […] To a well in a black 96-well plate (200 µL) was added 90 µL high pH buffer (5 mM MES, 5 mM Tricine, 5 mM NaCl, pH 7.4) containing CylA (4 nM final concentration). After adding inhibitor, the mixture was incubated at room temperature for 10 min then freshly prepared (no more than 2 days old) pyranine encapsulated DOPC liposomes were added such that the total DOPC concentration was 80 µM. […] The resulting curves were max-min normalized yielding the fraction of permeabilized liposomes. […] This experiment was performed in duplicate or triplicate for each inhibitor at each concentration.
Supplementary Figure 3. Measuring CylA-cat alyzed cytolysin maturation using a pyranine pore formation assay. Plots on the left side show the normalized pyranine emission intensity monitored […]
was added 30 min later. Each trace w as collected using a differ ent total co ncentration of inhibitor as indicated in the l egend. Traces are from a single representative tri al. On the right side, the fraction of liposomes permeabilized after 30 min was plotted as a function of total inhibitor concentration. The data were fit to a dose-response function using Origin 7 and the fit curve is depicted by the red line. Errors bars represent the standard of deviation bet ween two replicates (n = 2). Source d ata are pro vided as a Source Data file. […]

[3] = 100 μM of 9, untreated control = 1.0

With `CC(=O)NCC(=O)N[C@@H](CC(=O)O)C(=O)N[C@H](C(=O)N[C@@H](CCC(N)=O)C(=O)N[C@@H](C)C(=O)N[C@@H](CCC(=O)O)B(O)O)C1CC1` [Compound 9] (Ac-GD[Gly(cPr)]QA-boroGlu) as the compound, how does the “Fold Change, gene CylA (Figure 8D), replicates” value [1, 3] read?
The value was 0.01989 and 0.0236 and 0.00144 and 0.00137.

What about the “Fold Change, gene CylLL (Figure 8D), replicates” value [1, 3] of the same compound?
The value was 0.00585 and 0.2177 and 0.1852.

What about the “Fold Change, gene CylLS (Figure 8D), replicates” value [1, 3] of the same compound?
The value was 0.2335 and 0.2124 and 0.00397 and 0.00605.

And the “reduction in cylA transcripts” value ([1]; 100 μM, vs untreated control)?
Its value is 86 fold.

What about the “reduction in cylLL transcripts” value ([1]; 100 μM, vs untreated control) of the same compound?
The value was 9-10 fold.

What about the “reduction in cylLS transcripts” value ([1]; 100 μM, vs untreated control) of the same compound?
The value was 9-10 fold.

And the “stability in human serum” value [2]?
Its value is “relatively good stability”.

And the “more effective than compound 1 at inhibiting pore formation” value (His6-CylA-27-412)?
Its value is 2 fold.
